These results are taken from EP1873155A1, “Inhibitors of the HIV integrase enzyme” (PFIZER INC., priority 2004, dated 2005).

Usually pEC50 stands for the EC50 on a negative log10 scale, so that one unit is a factor of ten.

For this experiment, the system named is RF strain of HIV-1. Put plainly: HIV-1 cell protection assay (XTT dye reduction). The experiment is classed as cell-based. Here is the method:
Example 61: HIV-1 Cell Protection Assay
The antiviral activities of potential modulator compounds (test compounds) were determined in HIV-1 cell protection assays using the RF strain of HIV-1, CEM-SS cells, and the XTT dye reduction method (Weislow, O.S. et al., J. Natl. Cancer Inst. 81: 577-586 (1989)). Subject cells were infected with HIV-1 RF virus at an moi of 0.025 to 0.819 or mock infected with medium only and added at 2 x 10^4 cells per well into 96 well plates containing half-log dilutions of test compounds. Six days later, 50 µl of XTT solution (1 mg/ml XTT tetrazolium and […] phenazine methosulfate) were added to the wells and the plates were reincubated for four hours. Viability, as determined by the amount of XTT formazan produced, was quantified spectrophotometrically by absorbance at 450 nm.
Data from CPE assays were expressed as the percent of formazan produced in compound-treated cells compared to formazan produced in wells of uninfected, compound-free cells. […] The therapeutic index was calculated by dividing the cytotoxicity (CC50) by the antiviral activity (EC50).

Setting [1] is: Human immunodeficiency virus 1, CEM-SS, 144 h, CEM-SS cells infected with HIV-1 RF, six days, XTT formazan, read-out: EC50.
Setting [2] is: Human immunodeficiency virus 1, CEM-SS, 144 h.

SMILES strings stand for the structures. pEC50: −log10 of the molar value. Like-named read-outs stand apart in the source and are kept apart here.

As for `O=c1c2ncc3c(ccn3Cc3ccc(F)cc3)c2ccn1O` [Example 1, 3-(4-Fluorobenzyl)-7-hydroxy-3,7-dihydro-6H-pyrrolo[2,3-c]-1,7-naphthyridin-6-one], the pEC50 under setting [1] is 9.40.
Under setting [2], `O=C1c2ncc3c(ccn3Cc3ccc(F)cc3)c2CCN1O` [Example 2, 3-(4-Fluorobenzyl)-7-hydroxy-3,7,8,9-tetrahydro-6H-pyrrolo[2,3-c]-1,7-naphthyridin-6-one] had a negative logarithm of the EC50 (pEC50) of 9.22.
Consider `O=C1c2ncc3c(ccn3Cc3ccc(F)cc3)c2CCCN1O` [Example 3, 3-(4-Fluorobenzyl)-7-hydroxy-7,8,9,1 0-tetrahydropyrrolo[3',2':4,5]pyrido[2,3-c]azepin-6(3H)-one], for which the negative-log EC50 (pEC50) (CEM-SS cells infected with HIV-1 RF, six days, XTT formazan, read-out: EC50) is 7.54.
Consider `CN(C)Cc1cn(Cc2ccc(F)cc2)c2cnc3c(=O)n(O)ccc3c12` [Example 4, 1-[(dimethylamino)methyl]-3-(4-fluorobenzyl)-7-hydroxy-3,7-dihydro-6H-pyrrolo[2,3-c]-1,7-naphthyridin-6-one], for which, under setting [1], the pEC50 was 8.15.
Still for that read-out and setting: under `NC(=O)[C@@H]1CCCN1Cc1cn(Cc2ccc(F)cc2)c2cnc3c(=O)n(O)ccc3c12` [Example 5, 1-{[3-(4-fluorobenzyl)-7-hydroxy-6-oxo-6,7-dihydro-3H-pyrrolo[2,3-c]-1,7-naphthyridin-1-yl]methyl}-L-prolinamide] stands 7.42; under `O=C1CN(Cc2cn(Cc3ccc(F)cc3)c3cnc4c(=O)n(O)ccc4c23)CCN1` [Example 6, 3-(4-fluorobenzyl)-7-hydroxy-1-[(3-oxopiperazin-1-yl)methyl]-3,7-dihydro-6H-pyrrolo[2,3-c]-1,7-naphthyridin-6-one], 7.92; under `CN1CCN(Cc2cn(Cc3ccc(F)cc3)c3cnc4c(=O)n(O)ccc4c23)CC1` [Example 7, 3-(4-fluorobenzyl)-7-hydroxy-1-[(4-methylpiperazin-1-yl)methyl]-3,7-dihydro-6H-pyrrolo[2,3-c]-1 ,7-naphthyridin-6-one], 8.10.
Turning to `CCN1CCN(Cc2cn(Cc3ccc(F)cc3)c3cnc4c(=O)n(O)ccc4c23)CC1` [Example 8, 1-[(4-ethylpiperazin-1-yl)methyl]-3-(4-fluorobenzyl)-7-hydroxy-3,7-dihydro-6H-pyrrolo[2,3-c]-1,7-naphthyridin-6-one], under setting [1], the pEC50 is 7.96.
For `O=c1c2ncc3c(c(CN4CCc5ccccc5C4)cn3Cc3ccc(F)cc3)c2ccn1O` [Example 10, 1-(3,4-dihydroisoquinolin-2(1H)-ylmethyl)-3-(4-fluorobenzyl)-7-hydroxy-3,7-dihydro-6H-pyrrolo[2,3-c]-1,7-naphthyridin-6-one], under setting [1], the pEC50 was 9.39.
Take `CCCCCN(C)Cc1cn(Cc2ccc(F)cc2)c2cnc3c(=O)n(O)ccc3c12` [Example 11, 3-(4-fluorobenzyl)-7-hydroxy-1-{[methyl(pentyl)amino]methyl}-3,7-dihydro-6H-pyrrolo[2,3-c]-1,7-naphthyridin-6-one]: the pEC50 under setting [1] was 8.52.
Same read-out and setting: under `NC(=O)[C@H]1CCCN1Cc1cn(Cc2ccc(F)cc2)c2cnc3c(=O)n(O)ccc3c12` [Example 12, 1-{[3-(4-fluorobenzyl)-7-hydroxy-6-oxo-6,7-dihydro-3H-pyrrolo[2,3-c]-1,7-naphthyridin-1-yl]methyl}-D-prolinamide] stands 8.40; under `O=C1NCCC12CCN(Cc1cn(Cc3ccc(F)cc3)c3cnc4c(=O)n(O)ccc4c13)CC2` [Example 13, 3-(4-fluorobenzyl)-7-hydroxy-1-[(1-oxo-2,8-diazaspiro[4.5]dec-8-yl)methyl]-3,7-dihydro-6H-pyrrolo[2,3-c]-1,7-naphthyridin-6-one], 7.89.
As for `CCN(Cc1cn(Cc2ccc(F)cc2)c2cnc3c(=O)n(O)ccc3c12)C1CCCCC1` [Example 14, 1-{[cyclohexyl(ethyl)amino]methyl}-3-(4-fluorobenzyl)-7-hydroxy-3,7-dihydro-6H-pyrrolo[2,3-c]-1,7-naphthyridin-6-one], the negative-log EC50 (pEC50) under setting [1] is 8.10.
Still for that read-out and setting: under `O=C(CN1CCN(Cc2cn(Cc3ccc(F)cc3)c3cnc4c(=O)n(O)ccc4c23)CC1)N1CCCC1` [Example 15, 3-(4-fluorobenzyl)-7-hydroxy-1-{[4-(2-oxo-2-pyrrolidin-1-ylethyl)piperazin-1-yl]methyl}-3,7-dihydro-6H-pyrrolo[2,3-c]-1,7-naphthyridin-6-one] stands 7.41; under `CN(CCc1ccccn1)Cc1cn(Cc2ccc(F)cc2)c2cnc3c(=O)n(O)ccc3c12` [Example 16, 3-(4-fluorobenzyl)-7-hydroxy-1-{[methyl(2-pyridin-2-ylethyl)amino]methyl}-3,7-dihydro-6H-pyrrolo[2,3-c]-1,7-naphthyridin-6-one], 8.15; under `O=C1CCCN1CC1(O)CCN(Cc2cn(Cc3ccc(F)cc3)c3cnc4c(=O)n(O)ccc4c23)CC1` [Example 18, 3-(4-fluorobenzyl)-7-hydroxy-1-({4-hydroxy-4-[(2-oxopyrrolidin-1-yl)methyl]piperidin-1-yl}methyl)-3,7-dihydro-6H-pyrrolo[2,3-c]-1,7-naphthyridin-6-one], 7.17.
Regarding `O=C1CCN(Cc2cn(Cc3ccc(F)cc3)c3cnc4c(=O)n(O)ccc4c23)CCN1` [Example 19, 3-(4-fluorobenzyl)-7-hydroxy-1-[(5-oxo-1,4-diazepan-1-yl)methyl]-3,7-dihydro-6H-pyrrolo[2,3-c]-1,7-naphthyridin-6-one], under setting [1], the negative-log EC50 (pEC50) was 7.82.
Still for that read-out and setting: under `NC(=O)[C@@H]1CCCN1S(=O)(=O)c1cn(Cc2ccc(F)cc2)c2cnc3c(=O)n(O)ccc3c12` [Example 20, 1-{[3-(4-fluorobenzyl)-7-hydroxy-6-oxo-6,7-dihydro-3H-pyrrolo[2,3-c]-1,7-naphthyridin-1-yl]sulfonyl}-L-prolinamide] stands 6.41; under `O=c1c2ncc3c(c(S(=O)(=O)NCCc4c[nH]c5ccccc45)cn3Cc3ccc(F)cc3)c2ccn1O` [Example 21, 3-(4-fluorobenzyl)-7-hydroxy-N-[2-(1 H-indol-3-yl)ethyl]-6-oxo-6,7-dihydro-3H-pyrrolo[2,3-c]-1,7-naphthyridine-1-sulfonamide], 6.32; under `O=C1CN(S(=O)(=O)c2cn(Cc3ccc(F)cc3)c3cnc4c(=O)n(O)ccc4c23)CCN1` [Example 22, 3-(4-fluorobenzyl)-7-hydroxy-1-[(3-oxopiperazin-1-yl)sulfonyl]-3,7-dihydro-6H-pyrrolo[2,3-c]-1,7-naphthyridin-6-one], 7.35.
On the same count and under the same terms, under `CN(C)S(=O)(=O)c1cn(Cc2ccc(F)cc2)c2cnc3c(=O)n(O)ccc3c12` [Example 23, 3-(4-fluorobenzyl)-7-hydroxy-N,N-dimethyl-6-oxo-6,7-dihydro-3H-pyrrolo[2,3-c]-1,7-naphthyridine-1-sulfonamide] stands 8.40; under `O=c1c2ncc3c(c(S(=O)(=O)NCC(F)(F)F)cn3Cc3ccc(F)cc3)c2ccn1O` [Example 24, 3-(4-fluorobenzyl)-7-hydroxy-6-oxo-N-(2,2,2-trifluoroethyl)-6,7-dihydro-3H-pyrrolo[2,3-c]-1,7-naphthyridine-1-sulfonamide], 7.66; under `O=c1c2ncc3c(c(S(=O)(=O)NCc4ccc(F)cc4)cn3Cc3ccc(F)cc3)c2ccn1O` [Example 25, N,3-bis(4-fluorobenzyl)-7-hydroxy-6-oxo-6,7-dihydro-3H-pyrrolo[2,3-c]-1,7-naphthyridine-1-sulfonamide], 6.80.
In the case of `O=C(c1cn(Cc2ccc(F)cc2)c2cnc3c(=O)n(O)ccc3c12)N1CCCC1` [Example 26, 3-(4-fluorobenzyl)-7-hydroxy-1-(pyrrolidin-1-ylcarbonyl)-3,7-dihydro-6H-pyrrolo[2,3-c]-1,7-naphthyridin-6-one], the negative-log EC50 (pEC50) under setting [2] is 8.30.
Turning to `CC(=O)N1CCN(C(=O)c2cn(Cc3ccc(F)cc3)c3cnc4c(=O)n(O)ccc4c23)CC1` [Example 27, 1-[(4-acetylpiperazin-1-yl)carbonyl]-3-(4-fluorobenzyl)-7-hydroxy-3,7-dihydro-6H-pyrrolo[2,3-c]-1,7-naphthyridin-6-one], the pEC50 under setting [2] was 7.72.
On the same count and under the same terms, the same measure for `O=C(NCCc1cnccn1)c1cn(Cc2ccc(F)cc2)c2cnc3c(=O)n(O)ccc3c12` [Example 28, 3-(4-fluorobenzyl)-7-hydroxy-6-oxo-N-(2-pyrazin-2-ylethyl)-6,7-dihydro-3H-pyrrolo[2,3-c]-1,7-naphthyridine-1-carboxamide]: 7.62.
Same read-out and setting: under `O=C(NCc1ccccn1)c1cn(Cc2ccc(F)cc2)c2cnc3c(=O)n(O)ccc3c12` [Example 29, 3-(4-fluorobenzyl)-7-hydroxy-6-oxo-N-(pyridin-2-ylmethyl)-6,7-dihydro-3H-pyrrolo[2,3-c]-1,7-naphthyridine-1-carboxamide] stands 7.46.
On to `O=C(NCC(F)(F)F)c1cn(Cc2ccc(F)cc2)c2cnc3c(=O)n(O)ccc3c12` [Example 30, 3-(4-fluorobenzyl)-7-hydroxy-6-oxo-N-(2,2,2-trifluoroethyl)-6,7-dihydro-3H-pyrrolo[2,3-c]-1,7-naphthyridine-1-carboxamide], for which the pEC50 under setting [2] was 7.89.
In the case of `CC(C)(C)OC(=O)N1CCC(COCc2cn(Cc3ccc(F)cc3)c3cnc4c(=O)n(O)ccc4c23)CC1` [Example 32, tert-butyl 4-({[3-(4-fluorobenzyl)-7-hydroxy-6-oxo-6,7-dihydro-3H-pyrrolo[2,3-c]-1,7-naphthyridin-1-yl]methoxy)methyl)pip eridine-1-carboxylate], under setting [1], the pEC50 is 8.22.
